Experiments:
[1] = Clearance in RARG2-/-gammac-/- Balb/c mouse at 5 mg/kg, iv administered as single dose by LC-MS/MS analysis; type: ADME, organism-based; conditions: in vivo
[2] = Half life in RARG2-/-gammac-/- Balb/c mouse at 5 mg/kg, iv administered as single dose by LC-MS/MS analysis; type: ADME, organism-based; conditions: in vivo
[3] = Growth inhibition of human LAL-CUN-2 cells after 48 hrs by MTS assay; type: functional
OCI-Ly10 = test: Growth inhibition of human OCI-LY10 cells after 48 hrs by MTS assay; type: functional; conditions: OCI-Ly10, 48 h
[4] = target: DNA (cytosine-5)-methyltransferase 1 (Homo sapiens, UniProt P26358); test: Inhibition of human DNMT1 using polydeoxyinosine polydeoxycytosine DNA as substrate after 15 mins in presence of SAM by TR-FRET assay
[5] = target: T1, Histone-lysine N-methyltransferase EHMT2 (Homo sapiens, UniProt Q96KQ7); test: Inhibition of human G9a using biotinylated-H3K9 peptide as substrate after 1 hr in presence of SAM by TR-FRET assay
T1 sequence (Q96KQ7 whole entry): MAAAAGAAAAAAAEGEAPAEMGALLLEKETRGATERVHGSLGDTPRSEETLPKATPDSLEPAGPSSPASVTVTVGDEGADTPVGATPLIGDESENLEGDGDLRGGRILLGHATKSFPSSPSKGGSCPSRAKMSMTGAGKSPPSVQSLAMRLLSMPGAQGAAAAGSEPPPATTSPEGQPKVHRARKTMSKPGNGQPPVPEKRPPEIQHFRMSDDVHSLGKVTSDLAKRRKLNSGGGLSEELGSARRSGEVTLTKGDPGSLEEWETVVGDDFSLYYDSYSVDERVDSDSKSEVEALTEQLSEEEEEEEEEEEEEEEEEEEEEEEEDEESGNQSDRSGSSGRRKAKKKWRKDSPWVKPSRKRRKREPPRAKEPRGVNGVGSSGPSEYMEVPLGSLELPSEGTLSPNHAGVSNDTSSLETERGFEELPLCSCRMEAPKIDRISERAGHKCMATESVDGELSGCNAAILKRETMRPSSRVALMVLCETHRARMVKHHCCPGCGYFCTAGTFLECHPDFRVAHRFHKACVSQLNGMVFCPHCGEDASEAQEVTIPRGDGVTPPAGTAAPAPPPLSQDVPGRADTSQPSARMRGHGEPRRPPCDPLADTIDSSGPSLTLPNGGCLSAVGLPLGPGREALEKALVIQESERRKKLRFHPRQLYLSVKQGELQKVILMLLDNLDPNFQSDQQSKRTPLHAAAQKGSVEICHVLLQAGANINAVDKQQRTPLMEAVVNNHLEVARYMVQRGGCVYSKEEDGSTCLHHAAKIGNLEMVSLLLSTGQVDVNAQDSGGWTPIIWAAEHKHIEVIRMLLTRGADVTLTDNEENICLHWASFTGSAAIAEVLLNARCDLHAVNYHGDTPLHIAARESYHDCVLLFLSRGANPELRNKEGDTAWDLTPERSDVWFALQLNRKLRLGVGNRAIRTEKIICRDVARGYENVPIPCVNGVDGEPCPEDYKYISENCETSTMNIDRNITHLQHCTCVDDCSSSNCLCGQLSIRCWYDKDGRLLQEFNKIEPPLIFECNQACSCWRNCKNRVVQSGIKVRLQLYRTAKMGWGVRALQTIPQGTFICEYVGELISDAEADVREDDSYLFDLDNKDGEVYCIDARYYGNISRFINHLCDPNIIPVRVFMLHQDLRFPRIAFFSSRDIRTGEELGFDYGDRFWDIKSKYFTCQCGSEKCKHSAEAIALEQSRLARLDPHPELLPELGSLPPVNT

Sequence of DNA (cytosine-5)-methyltransferase 1 (P26358 whole entry): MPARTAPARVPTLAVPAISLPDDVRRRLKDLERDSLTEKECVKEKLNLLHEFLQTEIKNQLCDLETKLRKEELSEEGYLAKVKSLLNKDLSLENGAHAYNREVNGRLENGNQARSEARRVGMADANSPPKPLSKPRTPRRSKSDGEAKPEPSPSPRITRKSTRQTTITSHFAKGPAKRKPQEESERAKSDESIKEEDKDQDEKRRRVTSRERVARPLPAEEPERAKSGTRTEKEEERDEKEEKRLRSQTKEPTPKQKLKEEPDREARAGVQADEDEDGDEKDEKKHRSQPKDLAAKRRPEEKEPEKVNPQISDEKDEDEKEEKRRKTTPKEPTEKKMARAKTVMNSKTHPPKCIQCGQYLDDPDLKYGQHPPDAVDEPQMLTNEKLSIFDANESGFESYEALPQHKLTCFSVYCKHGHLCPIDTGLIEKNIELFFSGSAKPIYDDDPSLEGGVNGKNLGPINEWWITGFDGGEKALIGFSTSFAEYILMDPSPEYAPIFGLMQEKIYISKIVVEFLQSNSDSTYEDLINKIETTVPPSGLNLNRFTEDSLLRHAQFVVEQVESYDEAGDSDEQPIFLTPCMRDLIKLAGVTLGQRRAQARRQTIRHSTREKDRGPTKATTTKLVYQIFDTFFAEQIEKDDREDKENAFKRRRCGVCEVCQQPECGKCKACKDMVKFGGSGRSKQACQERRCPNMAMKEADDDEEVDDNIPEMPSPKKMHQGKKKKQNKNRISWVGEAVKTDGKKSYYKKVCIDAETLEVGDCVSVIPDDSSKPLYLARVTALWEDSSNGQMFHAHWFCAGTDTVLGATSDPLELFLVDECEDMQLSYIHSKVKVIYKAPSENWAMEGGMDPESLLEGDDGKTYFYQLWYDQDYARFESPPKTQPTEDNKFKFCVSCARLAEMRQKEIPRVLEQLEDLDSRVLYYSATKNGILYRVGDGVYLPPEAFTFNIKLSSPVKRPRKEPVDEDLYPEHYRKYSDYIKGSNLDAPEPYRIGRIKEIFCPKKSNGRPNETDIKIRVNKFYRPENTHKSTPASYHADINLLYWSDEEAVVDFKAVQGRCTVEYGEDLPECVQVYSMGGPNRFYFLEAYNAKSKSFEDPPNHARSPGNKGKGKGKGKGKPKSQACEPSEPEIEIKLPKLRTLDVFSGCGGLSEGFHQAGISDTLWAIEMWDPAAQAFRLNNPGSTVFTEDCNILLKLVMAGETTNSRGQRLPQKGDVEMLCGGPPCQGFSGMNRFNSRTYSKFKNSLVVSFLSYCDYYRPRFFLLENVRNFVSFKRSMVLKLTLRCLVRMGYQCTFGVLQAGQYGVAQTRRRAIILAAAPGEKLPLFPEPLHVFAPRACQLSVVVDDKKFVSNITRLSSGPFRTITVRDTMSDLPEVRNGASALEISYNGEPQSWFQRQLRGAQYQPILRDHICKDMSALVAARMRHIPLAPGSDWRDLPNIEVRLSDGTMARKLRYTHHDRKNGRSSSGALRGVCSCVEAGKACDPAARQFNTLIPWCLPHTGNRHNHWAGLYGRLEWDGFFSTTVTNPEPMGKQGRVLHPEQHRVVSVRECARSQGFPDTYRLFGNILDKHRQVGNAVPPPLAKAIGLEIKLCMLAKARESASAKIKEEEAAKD

SMILES: COc1cc2c(NC3CCN(C4CC4)CC3)cc(-c3ccc(C)o3)nc2cc1OCCCN1CCCC1
- clearance [1]: 15 mL/min/kg
- half-life [2]: 624 min
- GI50 [3]: 1380 nM
- GI50 (OCI-Ly10): 94 nM
- IC50 [4]: 413 nM
- IC50 [5]: 22 nM

Reference: ChEMBL document CHEMBL4130634, “Discovery of Reversible DNA Methyltransferase and Lysine Methyltransferase G9a Inhibitors with Antitumoral in Vivo Efficacy” (J Med Chem, 2018)
